Experimental data as given in patent US8288374B2, “Medicinal composition containing benzo[a]phenoxazine compound as the active ingredient for prevention or treatment of protozoal disease” (Hoshi University, priority 2008, dated 2012).
In brackets after ≈: the same amount, converted by molar mass. Counter-ions that a name gives are not always drawn. Like-named read-outs stand apart in the source and are kept apart here.

Columns and labels:
Rat L6 cells = experiment: Growth inhibition test of rat L6 cells; type: cell-based; settings: Table 2, unit inferred, 72 hours, read-out: Cytoxicity L6
Procedure: Rat derived-L6 cells (rat skeletal myoblast cell) were used. A medium, RPMI1640 medium was supplemented so that L-glutamin (200 mM) is 1%, and fetal bovine serum 10%, and the medium was cultured under CO2 concentration 5%, at 37° C.
The compounds of the present invention and the control drugs to be used in the test were dissolved in DMSO, to make a test solution of a predetermined concentration.
Pre-culture was conducted and medium containing cells which have entered the logarithmic growth phase was taken to wells of a 96-well culture plate. Then, a test solution containing drug of a predetermined concentration or a drug-free DMSO was added. Test solutions were taken by duplicates.
Culture plate was cultured for 72 hours in an incubator, to test the growth inhibition activity. Test was conducted as follows. 10 μL of Alamar Blue aqueous solution was added to each well, and the resultant was further cultured for 2 hours. Next, the culture plate was placed on a fluorescent micro-plate reader (Spectramax Gemeni XS; US Molecular Device), radiated at an excited wavelength of 536 nm. Fluorescent intensity was measured at 588 nm, and residual rate of L6 cells of the test solution added group, and that of the control was calculated.
Growth inhibition rate (%)={(C−A)/(B−A)}×100 • A: Primary cell count • B: cell count of control, 3 days after • C: cell count of wells added with a sample, 3 days after 4. Determination of Drug Efficacy Against Chloroquine Resistant-Plasmodium

Plasmodium falciparum K1 = experiment: Chloroquine resistant-Plasmodium falciparum growth inhibition screening test; type: cell-based; settings: for Selective toxicity: EC50 against rat L6 cells / EC50 against P. falciparum K1; for EC50: Plasmodium falciparum, Table 2, unit inferred, chloroquine-resistant K1 strain, read-out: P. falciparum K1
Procedure: In the present experiment, protozoa of plasmodium falsiparum K1 strain was used. RPMI-1640 medium sterilized with a filter to which human serum was added to be 5%, was used in the experiment. Malarial parasites were cultured under 3% O2 concentration, 4% CO2 concentration, 93% N2 concentration, and at a temperature of 37° C.
The compounds of the present invention to be used in the present test and the positive control drug (chloroquine) were dissolved in DMSO to make a test solution of a predetermined concentration. Cultured malaria parasite infected-erythrocytes were collected by centrifugation, and diluted with non-infected erythrocyte so that the early infection rate was 0.15%. Hematocrit level at that time was 2.5%.
200 μL of malaria infected solution was added to wells of a 96-well culture plate, and adjusted by adding a test solution containing drug of a predetermined concentration or a drug-free DMSO. Test solutions were taken by duplicates.
[…] […] Radiation intensity was measured with a beta plate liquid scintillation counter (Wallac), and malarial parasite infection rates of the test solution added group and the control group were calculated.
Growth inhibition rate (%)={1−(b−a)/(c−a)}×100 • a: early infection rate • b: infection rate when test solution was added • c: infection rate of the control 3. Growth Inhibition Test of Rat L6 Cells
Antimalarial activity of a sample was estimated from EC50 values of the sample against chloroquine resistant-Plasmodium falciparum and rat L6 cells. […] It means that the larger the value of the selection toxity, the less the risk of the side effect is. Chemotherapy index=(EC50 value of a sample against rat L6 cells)/(EC50 value of a sample against chloroquine resistant-Plasmodium falsiparum)

[1] = test system: Plasmodium berghei NK65 strain; experiment: Cure test by oral administration to mice infected with malaria; type: in vivo; settings: for inhibition in vivo at 100 mg/kg: Plasmodium berghei; for Days of survival: mean days to death minus that of control mice; for Effectiveness in the in vivo malaria test, in words: oral administration to mice infected with rodent malaria
Procedure: In this experiment, rodent malaria parasites (the Plasmodium berghei NK65 strain) were used.
The infected blood to be used was subcultured in ICR female SPF mice infected by intraperitoneal or tail vein administration at 4 to 6 weeks old (20 to 26 g). […] Thereafter, based on the number of red cells (cells/ml) and the rate of infection by the protozoans, the blood was diluted with phys'iological saline such that a density of […] malaria parasites/1 ml dose was attained. This was used for infection of uninfected mice (ICR female mice, 5 weeks old) in an amount of 0.2 ml/20 g body weight, through the tail vein (Day-0). The compound used in the test was dissolved in 10% DMSO solution (a mixture of 1 ml of DMSO and 9 ml of 5% glucose solution).
Each group contained 4 mice, and the compound was orally administered to the mice 24 hours after their infection with malaria (Day-1), in an amount calculated such that 100 mg of the compound was administered per 1 kg of the body weight of a mouse. On the other hand, in terms of cases in which the amount was calculated such that 30 mg of the compound was administered per 1 kg of the body weight of a mouse, the oral administration was carried out a total of three times, that is, 24 hours (Day-1), 48 hours (Day-2) and 72 hours (Day-3) after the infection of malaria.
Blood was collected from the tails of each mouse 96 hours (Day-4) and 144 hours (Day-6) after the infection with malaria, and thin blood films were prepared. Under the microscope, the numbers of infection of malaria parasites in the group to which the compound was administered and the control group (to which the compound was not administered) were measured, and the rates of infection with malaria parasites (Parasitemia) were calculated.
From the rate of infection with malaria parasites calculated as above, the cure rate (Suppression) in the case of administration of the drug was calculated according to the following equation. Cure rate: Suppression (%)=(B−A)/B×100
A: Rate of infection with the protozoans in a mouse to which the present test compound was administered
B: Rate of infection with the parasites in a control mouse (to which the compound was not administered) Days of survival: MSD (day)=C−D
C: the average number of days from the date of infection with malaria to the date of death in the mice to which the present test compound was administered
D: The average number of days from the date of infection with malaria to the date of death in the 4 individuals of control mice (to which the compound was not administered)
Further, by observation of changes in the body weight, hair glossiness and the like of each mouse, side effects such as acute toxicity due to administration of the compound were evaluated.

[2] = 96 h, oral, 100 mg/kg, 1 dose, infected ICR mice, suppression vs control, read-out: Cure rate (%) Day-4
[3] = 144 h, oral, 100 mg/kg, 1 dose, infected ICR mice, suppression vs control, read-out: Cure rate (%) Day-6
[4] = po, 96 h, read-out: Cure rate (%) Day-4
[5] = po, 144 h, read-out: Cure rate (%) Day-6

Row | melting point | SMILES | inhibition in vivo at 100 mg/kg [1, 2] | inhibition in vivo at 100 mg/kg [1, 3] | Days of survival ([1]; oral, 100 mg/kg, 1 dose) | Effectiveness in the in vivo malaria test, in words [1] | other results
1 | 167.2 to 168.4 °C | CCN(CC)c1cc(C)c2c(c1)OC1=CC(Nc3ccccn3)c3ccccc3C1=N2 (stereo not shown) (as salt: HCl) [Compound 1a, N,N-Diethyl-11-methyl-5-(pyridin-2-ylamino)-5H-benzo[a]phenoxazin-9-amine] |  |  |  |  | 
2 | 161.6 to 163.1 °C | CCN(CC)c1cc(C)c2c(c1)OC1=CC(Nc3cccnc3)c3ccccc3C1=N2 (stereo not shown) (as salt: HCl) [Compound 1b, N,N-Diethyl-11methyl-5-(pyridin-3-ylamino)-5H-benzo[a]phenoxazin-9-amine] |  |  |  |  | 
3 | > 300 °C | CCN(CC)c1cc(C)c2c(c1)OC1=CC(Nc3ccncc3)c3ccccc3C1=N2 (stereo not shown) (as salt: HCl) [Compound 1c, N,N-Diethyl-11-methyl-5-(pyridin-4-ylamino)-5H-benzo[a]phenoxazin-9-amine] |  |  |  |  | 
4 | 215 to 216 °C | CCCN(CCC)c1ccc2nc3c4ccccc4c(=Nc4ccncc4)cc-3oc2c1 [Compound 1D, N,N-Dipropyl-5-(pyridin-4-ylimino)-5H-benzo[a]phenoxazin-9-amine] |  |  |  |  | 
5 | 188 to 189 °C | CCCCN(CCCC)c1ccc2nc3c4ccccc4c(=Nc4ccncc4)cc-3oc2c1 [Compound 1E, N,N-Dibutyl-5-(pyridin-4-ylimino)-5H-benzo[a]phenoxazin-9-amine] |  |  |  |  | 
6 | 204 to 205 °C | CCN(CC)c1ccc2nc3c4ccc(Br)cc4c(=Nc4ccccn4)cc-3oc2c1 [Compound 1F, 3-Bromo-N,N-diethyl-5-(pyridin-2-ylimino)-5H-benzo[a]phenoxazin-9-amine] |  |  |  |  | 
7 | 229 to 230 °C | CCN(CC)c1ccc2nc3c4ccccc4c(=Nc4cc(C)nc5ccccc45)cc-3oc2c1 [Compound 1P, N,N-Diethyl-5-(2-methylquinoline-4-ylimino)-5H-benzo[a]phenoxazin-9-amine] |  |  |  |  | EC50 (Rat L6 cells): 6.6 µg/mL (≈ 14.4 µM); Selective toxicity (Plasmodium falciparum K1): 183; EC50 (Plasmodium falciparum K1): 0.036 µg/mL (≈ 0.0785 µM)
8 | 175 to 181 °C | CCOC(=O)C(Cc1ccc(O)cc1)N=c1cc2oc3cc(N(CC)CC)ccc3nc-2c2ccccc12 (stereo not shown) [Compound 1Q, Ethyl 2-[9-(Diethylamino)-5H-benzo[a]phenoxazin-5-ylideneamino]-3-(4-hydroxyphenyl)propanoate] |  |  |  |  | EC50 (Rat L6 cells): 33.8 µg/mL (≈ 66.3 µM); Selective toxicity (Plasmodium falciparum K1): 751; EC50 (Plasmodium falciparum K1): 0.045 µg/mL (≈ 0.0883 µM)
9 | > 300 °C | c1ccc2c(=Nc3ccncc3)cc3oc4cc(N5CCOCC5)ccc4nc-3c2c1 [Compound 1e, 9-Morpholino-5-(pyridin-4-ylimino)-5H-benzo[a]phenoxazine] |  |  |  |  | 
10 | 266.8 to 268.2 °C | c1ccc2c(=Nc3ccncc3)cc3oc4cc(N5CCCCC5)ccc4nc-3c2c1 [Compound 1f, 9-(Piperidin-1-yl)-5-(pyridin-4-ylimino)-5H-benzo[a]phenoxazine] |  |  |  |  | 

The next lines start with the compound.

Row | SMILES | melting point | inhibition in vivo at 100 mg/kg [1, 2] | inhibition in vivo at 100 mg/kg [1, 3] | Days of survival ([1]; oral, 100 mg/kg, 1 dose) | Effectiveness in the in vivo malaria test, in words [1] | other results
11 | CCN(CC)c1ccc2nc3c4ccccc4c(=Nc4cccnc4)cc-3oc2c1 [Compound 1N, N,N-Diethyl-5-(pyridin-3-ylimino)-5H-benzo[a]phenoxazin-9-amine] |  | 41% | 0% | 0 days |  | EC50 (Rat L6 cells): 46.1 µg/mL (≈ 117 µM); Selective toxicity (Plasmodium falciparum K1): 5123; EC50 (Plasmodium falciparum K1): 0.009 µg/mL (≈ 0.0228 µM)
12 | c1ccc(/N=c2/cc3oc4cc(N5CCOCC5)ccc4nc-3c3ccccc23)nc1 [Compound 1O, N-(9-Morphlino-5H-benzo[a]phenoxazin-5-ylidene)pyridin-2-amine] |  | 81% | 60% | 0.6 days |  | EC50 (Rat L6 cells): 20.8 µg/mL (≈ 50.9 µM); Selective toxicity (Plasmodium falciparum K1): 1386; EC50 (Plasmodium falciparum K1): 0.015 µg/mL (≈ 0.0367 µM)
13 | CCN(CCNS(C)(=O)=O)c1cc(C)c2nc3c4ccccc4c(=Nc4cccnc4)cc-3oc2c1 [Compound 1T, N-Ethyl-N-(2-methansulfonamidylethyl)-11-methyl-5-(pyridine-3-ylimino)-5H-benzo[a]phenoxazin-9-amine] |  | 96.5% | 79.4% | 13.3 days | excellent cure effects | EC50 (Rat L6 cells): 23.9 µg/mL (≈ 47.7 µM); Selective toxicity (Plasmodium falciparum K1): 2988; EC50 (Plasmodium falciparum K1): 0.008 µg/mL (≈ 0.0159 µM)
14 | CCN(CC)c1ccc2nc3c4ccccc4/c(=N\c4ccccc4)cc-3oc2c1 [Compound 1U, reference compound] |  |  |  | 0.8 days | effectiveness was hardly observed | inhibition in vivo at 100 mg/kg [1, 4]: 0%; inhibition in vivo at 100 mg/kg [1, 5]: 16.8%
15 | CCN(CC)c1ccc2nc3c4ccccc4/c(=N\c4ccc(C)cc4)cc-3oc2c1 [Compound 1V, reference compound] |  |  |  | 0.8 days | effectiveness was hardly observed | inhibition in vivo at 100 mg/kg [1, 4]: 0%; inhibition in vivo at 100 mg/kg [1, 5]: 11.4%
16 | CCN(CC)c1ccc2nc3c(cc(N)c4ccccc43)[o+]c2c1 [Nile blue A, reference compound] |  | 15% | 5% | 0.3 days | did not show effectiveness | 
17 | CCN(CC)c1ccc2nc3c4ccccc4c(=O)cc-3oc2c1 [Nile red, reference compound] |  | 16% | 3% | 0 days | did not show effectiveness | 
18 | CCNc1cc2[o+]c3cc(NCC)c4ccccc4c3nc2cc1C [Oxazin 170 perchlorate, reference compound] |  | 40% | 57% | 1.3 days | did not show effectiveness | 
